This is an account of results in paper PMC3857224, “Inhibition of DNA Glycosylases via Small Molecule Purine Analogs” (PLoS ONE, 2013).

pIC50: −log10 of the molar value.

One data set deals with NEIL1-depleted cells. On the set-up: method as in PMID 21131780. The following applies: minimally toxic doses, siRNA NEIL1 depletion; cited from earlier work.
Data set [1] deals with T1, NEIL1 (Homo sapiens, UniProt Q96FI4).
T1 construct: made in house
The experiment in a line: qHTS fluorogenic glycosylase/AP lyase assay, 1536-well, Sp/Gh substrate. The format is biochemical. The following applies: 5 concentrations. Here is the method:
The fluorogenic assay was miniaturized to 4 µL in 1536-well black solid plates by optimization of the enzyme and Sp/Gh substrate concentrations. Briefly, 3 µL of 25 nM NEIL1 were dispensed into each well of a 1536-well plate (except buffer in columns 3 and 4 as a negative control). Compounds (DMSO solutions) and control (DMSO only) (23 nL) were transferred to the plate via Kalypsys pintool. The plate was incubated for 15 min at room temperature, and then 1 µL of the Sp/Gh-containing DNA substrate (75 nM final concentration) was added to start the reaction. The plate was immediately transferred into the ViewLux reader for the kinetic fluorescence read. Initial rate data were normalized against uninhibited and no-enzyme controls and the resulting percent activities as a function of compound concentration were fitted using the Hill equation.
Having established the general principle for a glycosylase screening assay, further assay development was undertaken to enable HTS in which the reaction volumes were reduced by 5-fold to a total of 4 µL. Initially, the library of pharmacologically active compounds (LOPAC^1280) was screened for inhibitors of NEIL1 as a determination of the feasibility of this high-throughput method. […] All compounds were screened at 5 different concentrations that allowed for the initial estimation of inhibitory potency (IC50) values, as well as an evaluation of the shape of the response curves. In addition to the anticipated inhibitors (known DNA intercalators, such as ellipticine (IC50 = 2 µM)) and other small molecules that have been previously established to be promiscuous inhibitors (such as aurintricarboxylic acid (IC50<1 µM)), one interesting hit from this screen was CGP-74514A (NCGC ID is NCGC00015229) (Figure 5A). CGP-74514A is a known small molecule inhibitor of Cdk1 in which the structure of this molecule is based on a purine ring backbone.

Data set [2] addresses T1, NEIL1. The experiment in a line: gel-based incision assay of oligodeoxynucleotides containing site-specific base lesions. Format: biochemical. The following applies: polyacrylamide gel, reaction quenched at 20 min. The procedure:
The 384-well fluorogenic assay was carried out in a 20 µL reaction mixture in 20 mM Tris-HCl pH 8.0, 100 mM KCl, and 0.1% BSA, with 5 nM active enzyme and 50 nM substrate. Possible inhibitors were incubated with the enzyme for at least 5 min at room temperature in a black, low-volume 384-well plate before addition of an equal volume of substrate to start the reaction. The plates were spun for 30 s at 1000 rcf to remove bubbles. The reactions were incubated at 37°C and fluorescence data collected on an Infinite M200 (Tecan, Mannedorf, Switzerland) equipped with standard optics (excitation filter 525 nm, and emission filter 598 nm). For the gel-based assay, reactions were initiated as described for the fluorogenic assay, but quenched with 20 µL 95% formamide at 20 min. The products were separated by electrophoresis through a 15% polyacrylamide gel containing 8 M urea and visualized by a Typhoon scanner (GE Life Sciences, Piscataway, NJ). The fraction of cleaved product was measured using ImageQuant software and analyzed using GraphPad Prism 6. […]

In data set [3] the target is T1, NEIL1. The experiment in a line: NEIL1 excision of FapyAde and FapyGua from γ-irradiated calf thymus DNA by GC-MS/MS. The following applies: 10 µL of 2 mM inhibitor in DMSO, 1 h 37°C. The format is biochemical. The procedure: The enzymatic activity of NEIL1 was measured using gas chromatography/isotope-dilution tandem mass spectrometry (GC-MS/MS) and calf thymus DNA samples γ-irradiated at 20 Gy as described, [30]. Aliquots of FapyAde-^13C,^15N2 and FapyGua-^13C,^15N2 were added as internal standards to 50 µg of DNA samples. After drying in a SpeedVac, DNA samples were dissolved in 50 µL of an incubation buffer consisting of 50 mM phosphate buffer (pH 7.4), 100 mM KCl, 1 mM EDTA, and 0.1 mM dithiothreitol, and then incubated with 2 µg NEIL1 for 1 h at 37°C without any inhibitor, DMSO alone, or with 10 µL of an inhibitor solution in DMSO (2 mM). After incubation, 150 µL of cold ethanol was added. The samples were kept at −20°C for 1 h and then centrifuged with 14,000 g for 30 min at 4°C. The supernatant fractions were separated and ethanol removed in a SpeedVac under vacuum. The samples were then frozen in liquid nitrogen and lyophilized overnight. To fully remove DMSO that would interfere with GC-MS/MS analysis, 500 µL water were added to the samples followed by lyophilization overnight. This procedure was repeated twice. Dried samples were derivatized and analyzed by GC-MS/MS as described, [30]. For each data point, three independently prepared samples were used.
Although Gh and Sp are excellent substrates for NEIL1, these are likely not to be the biologically relevant substrates. Thus, to determine if the compounds that were identified above were effective in the inhibition of NEIL1 against its biologically relevant substrates FapyAde and FapyGua, [6], γ-irradiated calf thymus DNA was used as a substrate. The excision by NEIL1 of these substrates from DNA was measured by GC-MS/MS with isotope-dilution. Figure 8 illustrates the excision of FapyAde and FapyGua by NEIL1 from γ-irradiated calf thymus DNA in the absence or presence of inhibitors. […] Some inhibition by DMSO alone was also observed when compared with excision by NEIL1 alone (p = 0.01). However, when compared to DMSO, the inhibitions by P2, P6, P7 and P8 were highly significant (p<0.005). […] A p-value<0.05 was assumed to correspond to statistical significance.

T1 sequence (Q96FI4 whole entry): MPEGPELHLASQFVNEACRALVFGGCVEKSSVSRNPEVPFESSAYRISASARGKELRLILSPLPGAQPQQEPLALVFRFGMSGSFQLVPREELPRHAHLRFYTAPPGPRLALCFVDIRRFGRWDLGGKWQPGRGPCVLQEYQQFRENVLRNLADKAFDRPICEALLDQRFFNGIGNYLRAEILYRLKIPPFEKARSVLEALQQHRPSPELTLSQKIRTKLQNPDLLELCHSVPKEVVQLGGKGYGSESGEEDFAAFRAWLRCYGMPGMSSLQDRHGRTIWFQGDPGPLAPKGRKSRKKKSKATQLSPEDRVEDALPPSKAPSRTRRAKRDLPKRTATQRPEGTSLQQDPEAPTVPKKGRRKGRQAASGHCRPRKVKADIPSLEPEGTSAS

`Nc1nc(N)c2nc(CNc3ccc(C(=O)N[C@@H](CCC(=O)O)C(=O)O)cc3)cnc2n1` [AMT, aminopterin]: in the data set with NEIL1-depleted cells, the “increased cytotoxicity in NEIL1-depleted cells” value (“increased cytotoxicity” below) was 7 fold.

Regarding `CN(Cc1cnc2nc(N)nc(N)c2n1)c1ccc(C(=O)N[C@@H](CCC(=O)O)C(=O)O)cc1` [MTX, methotrexate], the “increased cytotoxicity” value in the data set with NEIL1-depleted cells is listed as 10 fold.

For the molecule `Cc1ccc2nc(N)[nH]c(=O)c2c1Sc1ccncc1` [NOL, nolatrexed], the “increased cytotoxicity” value in the data set on NEIL1-depleted cells was 5 fold.

For the molecule `N#Cc1nc(Nc2cc(F)cc(F)c2)c2ncn(CCN3CCCC3)c2n1` [Purine P1], the results for the pIC50 against NEIL1 [1] and against NEIL1 [2] were 5.44 and < 4.30, respectively.

As to `O=C(OCC1OC(n2cnc3c(N(C(=O)c4ccccc4)C(=O)c4ccccc4)ncnc32)C(O)C1F)c1ccccc1` (stereo not drawn) [Purine P3], the pIC50 against NEIL1 [1] is 5.49; against NEIL1 [2] it was < 4.30.

Regarding `N#Cc1nc(Nc2cc(F)cc(F)c2)c2ncn(CCCN3CCCC3)c2n1` [Purine P5], the pIC50 is 5.10 against NEIL1 [1] and < 4.30 at NEIL1 [2].

On to `CCNc1nc(C#N)nc2c1ncn2-c1cccc(Cl)c1` [Purine P10], for which the values for the pIC50 against NEIL1 [1] and against NEIL1 [2] were 5.00 and < 4.30, respectively.

`C=CC(=O)N1CCCC(Nc2nc(Nc3ccc(N(C)C(=O)CC)cc3C)nc3nc[nH]c23)C1` (stereo not drawn) [Purine P12]: the pIC50 is 4.95 at NEIL1 [1] and < 4.70 on NEIL1 [2].

Consider `CC(C)n1cnc2c(N(C)c3ccccc3)nc(N(CCN(C)C)Cc3ccccc3)nc21` [Purine P13], for which the pIC50 was 4.90 against NEIL1 [1] and < 4.30 against NEIL1 [2].

Turning to `Nc1ncnc2c1ncn2[C@@H]1O[C@H](CNCc2cccc(C#Cc3ccccc3)c2)[C@@H](O)[C@H]1O` [Purine P14], the values for the pIC50 on NEIL1 [1] and on NEIL1 [2] were 4.90 and < 4.30, respectively.

Take `CC(C)CNc1ncnc2c1ncn2[C@H]1CN(Cc2ccc(-c3ccccc3)cc2)C[C@@H](CO)O1` [Purine P15]: the pIC50 at NEIL1 [1] was 4.85; against NEIL1 [2], < 4.30.

Turning to `CN(C)CCNc1ncnc2c1ncn2[C@H]1CN(Cc2ccc(-c3ccccc3)cc2)C[C@@H](CO)O1` [Purine P16], the negative-log IC50 (pIC50) against NEIL1 [1] was 4.80; against NEIL1 [2], < 4.30.

As for `O=C(C1CCCN(c2ncnc3c2nc2n3CCCCC2)C1)N1CCN(c2cccc(Cl)c2)CC1` (stereo not drawn) [Purine P17], the results for the pIC50 against NEIL1 [1] and against NEIL1 [2] were 4.80 and < 4.30, respectively.

`Cc1cc(/C=C/C#N)cc(C)c1Nc1nc(Nc2ccc3n[nH]nc3c2)c2[nH]cnc2n1` [Purine P18]: the pIC50 on NEIL1 [1] was 4.75; against NEIL1 [2], < 4.30.

`O=C(C1CCN(c2ncnc3c2nc2n3CCCCC2)CC1)N1CCN(c2cccc(Cl)c2)CC1` [Purine P19]: the pIC50 against NEIL1 [1] is 4.70; on NEIL1 [2], < 4.70. In addition, the “inhibition of NEIL1 excision of FapyAde and FapyGua” value at NEIL1 [3] is “no inhibition”.

Take `Cc1ccc(C(=O)Nc2cccc(C(F)(F)F)c2)cc1Nc1ncnc2nc[nH]c12` [Purine P20]: the pIC50 was 4.65 at NEIL1 [1] and < 4.30 against NEIL1 [2].

In the case of `Cc1ccc(NC(=O)C2CCCN(c3ncnc4c3nc3n4CCCCC3)C2)cc1Cl` (stereo not drawn) [Purine P22], the pIC50 was 4.60 against NEIL1 [1] and < 4.30 against NEIL1 [2].

On to `Cc1cc(C)c(CN2CCN(C(=O)Cn3cnc4c(NCc5ccccc5)ncnc43)CC2)c(C)c1` [Purine P25], for which the pIC50 on NEIL1 [1] is 4.50; on NEIL1 [2] it was < 4.70.

Take `c1ccc(COc2ccc(Nc3ncnc4nc[nH]c34)cc2)cc1` [Purine P26]: the pIC50 is 4.50 on NEIL1 [1] and < 4.70 on NEIL1 [2].

On to `CC(=O)c1ccc(N2CCN(C(=O)C3CCCN(c4ncnc5c4nc4n5CCCCC4)C3)CC2)cc1` (stereo not drawn) [Purine P27], for which the pIC50 is 6.22 on NEIL1 [1] and < 4.30 against NEIL1 [2].

In the case of `CCc1cccc(NC(=O)C2CCCN(c3ncnc4c3nc3n4CCCCC3)C2)c1` (stereo not drawn) [Purine P28], the pIC50 at NEIL1 [1] was 6.15; on NEIL1 [2], < 4.70.

As for `CC(=O)OC[C@@H]1CN(Cc2ccccc2)C[C@H](n2cnc3c(NCc4ccc(F)cc4)ncnc32)O1` [Purine P29], the pIC50 is 6.05 on NEIL1 [1] and < 4.30 against NEIL1 [2].

As to `CNC(=O)[C@H]1O[C@H](n2cnc3c(NCc4cccc(I)c4)ncnc32)[C@@H](O)[C@@H]1O` [Purine P30], the results for the pIC50 on NEIL1 [1] and against NEIL1 [2] were 5.74 and < 4.30, respectively.

`Cc1ccccc1CN1CCC(CNC(=O)C2CCCN(c3ncnc4c3nc3n4CCCCC3)C2)CC1` (stereo not drawn) [Purine P31]: the values for the pIC50 at NEIL1 [1] and on NEIL1 [2] were 5.15 and < 4.30, respectively.

Take `CC(C)[C@H](CO)N(Cc1cccc(F)c1)c1nc(Nc2cccc(Cl)c2)c2ncn(C(C)C)c2n1` [Purine P32]: the figures for the pIC50 at NEIL1 [1] and at NEIL1 [2] were 5.15 and 4.71, respectively.

Take `CC(C)n1cnc2c(NCc3ccccc3)nc(NCc3ccccc3)nc21` [Purine P33]: the pIC50 is 5.10 on NEIL1 [1] and < 4.30 against NEIL1 [2].

As for `COc1cccc(-c2cc(CNC(=O)[C@H]3O[C@@H](n4cnc5c(N)ncnc54)[C@H](O)[C@@H]3O)no2)c1` [Purine P34], the negative-log IC50 (pIC50) was 5.00 on NEIL1 [1] and < 4.30 against NEIL1 [2].

For the molecule `COc1ccc2[nH]cc(CCNC(=O)/C=C/[C@H]3O[C@@H](n4cnc5c(NC(=O)c6ccccc6)ncnc54)[C@H](O)[C@@H]3O)c2c1` [Purine P35], the pIC50 at NEIL1 [1] is 4.95; on NEIL1 [2], < 4.30.

Consider `Nc1nc(N)c2[nH]c(-c3ccccc3)nc2n1` [Purine P36], for which the negative-log IC50 (pIC50) was 4.81 at NEIL1 [1] and < 4.30 against NEIL1 [2].

As to `COc1ccccc1CNC(=O)C1CCN(c2ncnc3c2nc2n3CCCCC2)CC1` [Purine P37], the pIC50 at NEIL1 [1] is 5.00; at NEIL1 [2], < 4.30.

As for `OC[C@@H]1CN(Cc2ccccc2)C[C@H](n2cnc3c(N4CCN(c5ccccc5)CC4)ncnc32)O1` [Purine P38], the results for the pIC50 against NEIL1 [1] and at NEIL1 [2] were 6.52 and < 4.30, respectively.

`Cc1cccc(OCCSc2nc3c([nH]2)c(=N)ncn3Cc2ccccc2)c1` [Purine P39]: the figures for the pIC50 on NEIL1 [1] and at NEIL1 [2] were 6.22 and < 4.30, respectively.

Consider `COc1ccc(CNc2nc(NCc3ccc(OC)cc3)c3[nH]cnc3n2)cc1` [Purine P40], for which the pIC50 was 6.22 at NEIL1 [1] and < 4.30 against NEIL1 [2].

In the case of `O=C(C1CCCN(c2ncnc3c2nc2n3CCCCC2)C1)N1CCN(c2ccc(F)cc2)CC1` (stereo not drawn) [Purine P41], the negative-log IC50 (pIC50) at NEIL1 [1] was 6.10; on NEIL1 [2], < 4.30.

In the case of `CCOCCCNc1ncnc2c1nc1n2CCCC1` [Purine P42], the pIC50 is 6.10 on NEIL1 [1] and < 4.30 at NEIL1 [2].

For `O=C(O)C1=CC(=C(c2ccc(O)c(C(=O)O)c2)c2ccc(O)c(C(=O)O)c2)C=CC1=O` [aurintricarboxylic acid, reference compound], the pIC50 at NEIL1 [1] was > 6.00.
